Assay in all cases: DTP human tumour cell line panel, 48 h
In assay [1] the test system is PC-3 prostate.
For assay [2], the system named is K-562 leukemia.
The test system of assay [3] is EKVX NSCLC.
In assay [4] the test system is MALME-3M melanoma.
Assay [5] relates to HL-60(TB) leukemia.
The test system of assay [6] is BT-549 breast.
Assay [7] deals with SK-MEL-28 melanoma.
Assay [8] concerns HS 578T breast.
Assay [9] has as its system NCI-H522 lung.
The subject of assay [10] is A549 NSCLC.

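96-well plates; 48 h exposure; 5 concentrations. Endpoints by linear interpolation between flanking doses. Not reached: highest tested concentration assigned. TGI denotes the concentration required for complete inhibition of growth.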

For the compound `COc1cc(/C=C2\CC3C4CC[C@H]5C[C@@H](O)CC[C@]5(C)C4CC[C@]3(C)\C2=N\O)cc(OC)c1OC` (stereo not given in full), the total growth inhibition concentration (TGI) is 55.1 µM in assay [1]; greater than 100 µM in [2]; greater than 100 µM in assay [3]; 42.8 µM in [4]; 55.8 µM in assay [5]; 42.1 µM in [6]. Further, the TGI in assay [7] is 66.9 µM; in assay [8], 75.7 µM; in assay [9] it was 94.8 µM; in [10] it was greater than 100 µM.

Source of the values: PubChem BioAssay (NCI).
